Measurements reported in patent publication US6531314B1, “Growth hormone secretagogue receptor family” (Merck & Co., Inc., priority 1998, dated 2003).

Tests used:
[1] = target: T1, swine growth hormone secretagogue receptor (Type I, clone 7-3) (Sus scrofa, UniProt Q95254); assay: aequorin bioluminescence assay in Xenopus oocytes; type: cell-based; parameters: bioluminescence response: dose or concentration left out as unconfirmed
Method: (§1) Xenopus laevis oocytes were isolated and injected using standard methods previously described by Arena, et al., 1991, Mol. Pharmacol. 40, 368-374, which is hereby incorporated by reference. Adult female Xenopus laevis frogs (purchased from Xenopus One, Ann Arbor, Mich.) were anesthetized with 0.17% tricaine methanesulfonate and the ovaries were surgically removed and placed in a 60 mm culture dish (Falcon) containing OR-2 medium without calcium (82.5 mM NaCl, 2 mM KCl, 2.5 mM sodium pyruvate, 1 mM MgCl2, […] penicillin, 1 mg/ml streptomycin, 5 mM HEPES, pH=7.5; ND-96 from Specialty Media, N.J.). Ovarian lobes were broken open, rinsed several times, and oocytes were released from their sacs by collagenase A digestion (Boehringer-Mannheim; 0.2% for 2-3 hours at 18° C.) in calcium-free OR-2. […]
(§2) The ABA requires injection of library pool cRNA (25 ng/egg for pool sizes of 500 to 10,000) with aequorin cRNA (2 ng/egg) supplemented with the G-protein alpha subunit Ga11 (2 ng/egg). […] Polymerase chain reaction (PCR) was utilized to generate a DNA fragment corresponding to the open reading frame (ORF) of the aequorin cDNA with an optimized Kosak translational initiation sequence (Inouye, S. et. ul., 1985, Proc. Natl. Acad. Sci. USA 82:3154-3158). […]

[2] = target: T2, human growth hormone secretagogue receptor (Type I) (Homo sapiens, UniProt Q92847); assay: aequorin bioluminescence assay in Xenopus oocytes; type: cell-based; details: human Type I cRNA expressed in oocytes; responded to concentrations ranging from 1 mM to as low as 0.1 nM
T2 construct: expressed in transfected cells; host or cells: Xenopus laevis oocytes injected with cRNA, together with aequorin and G-alpha-11 cRNA
T2 sequence (Q92847 whole entry): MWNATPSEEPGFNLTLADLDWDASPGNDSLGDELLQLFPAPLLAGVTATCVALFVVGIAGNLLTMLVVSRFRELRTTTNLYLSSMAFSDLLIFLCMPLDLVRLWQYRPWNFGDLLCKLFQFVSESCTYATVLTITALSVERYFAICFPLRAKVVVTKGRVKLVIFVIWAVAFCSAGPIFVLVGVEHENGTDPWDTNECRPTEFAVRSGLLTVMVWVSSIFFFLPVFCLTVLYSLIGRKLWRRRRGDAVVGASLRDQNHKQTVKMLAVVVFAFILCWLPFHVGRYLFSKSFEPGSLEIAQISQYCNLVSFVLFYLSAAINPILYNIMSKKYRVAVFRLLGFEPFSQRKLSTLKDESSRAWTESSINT
Method: as §1, §2

rat GHSR type Ia = target: T3, rat GHSR type Ia (Rattus norvegicus, UniProt O08725); assay: aequorin bioluminescence in transfected 293-AEQ17 reporter cells; type: cell-based; details: rat GHSR ORF construct in 293-AEQ17 cells; three replicate samples (FIG. 26)
T3 construct: Met-1 to Val-260 with EcoRI (5′) and HpaI (3′) restriction sites appended, while a carboxyl-terminal fragment was generated from Lys-261 to Thr-364; expressed in transfected cells; host or cells: 293-AEQ17 (HEK-293 aequorin reporter line), transient lipofectamine transfection of the pSV7 ORF construct
T3 sequence (O08725 whole entry, the tested form may be a part): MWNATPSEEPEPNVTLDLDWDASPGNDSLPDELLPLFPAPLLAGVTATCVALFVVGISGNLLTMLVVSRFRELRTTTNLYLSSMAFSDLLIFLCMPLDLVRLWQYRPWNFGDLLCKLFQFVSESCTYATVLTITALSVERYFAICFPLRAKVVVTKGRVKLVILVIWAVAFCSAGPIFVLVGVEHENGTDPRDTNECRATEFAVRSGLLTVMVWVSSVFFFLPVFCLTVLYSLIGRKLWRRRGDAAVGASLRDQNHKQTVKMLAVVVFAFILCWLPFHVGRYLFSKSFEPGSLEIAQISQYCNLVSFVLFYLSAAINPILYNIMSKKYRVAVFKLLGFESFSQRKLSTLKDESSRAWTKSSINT
Method: Functional activity of the ORF construct was assessed by transfecting (using lipofectamine; GIBCO/BRL) […] of plasmid DNA into the aequorin expressing reporter cell line (293-AEQ17) cultured in 60 mm dishes. Following approximately 40 hours of expression the aequorin in the cells was charged for 2 hours with coelenterazine, the cells were harvested, washed and pelleted by low speed centrifugation into luminometer tubes. Functional activity was determined by measuring Compound A dependent mobilization of intracellular calcium and concomitant calcium induced aequorin bioluminescence.

[3] = target: T1, swine growth hormone secretagogue receptor (Type I, clone 7-3); assay: 35S-Compound A binding assay, membranes of COS-7 cells transfected with clone 7-3

T1 sequence (Q95254 65-366): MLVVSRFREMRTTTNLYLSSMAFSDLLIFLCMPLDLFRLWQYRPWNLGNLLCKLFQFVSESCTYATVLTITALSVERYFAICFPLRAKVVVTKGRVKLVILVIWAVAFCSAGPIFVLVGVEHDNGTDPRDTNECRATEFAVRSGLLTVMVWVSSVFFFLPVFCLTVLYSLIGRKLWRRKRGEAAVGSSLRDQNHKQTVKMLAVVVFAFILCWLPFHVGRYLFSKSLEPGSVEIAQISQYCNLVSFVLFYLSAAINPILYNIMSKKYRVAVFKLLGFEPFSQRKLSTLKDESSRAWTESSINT

Row | Structure (SMILES) | bioluminescence response ([1]; oocytes injected with cRNA of clones 7-3 and 28-18) | lowest Compound A concentration giving a response ([1]; swine Type I cRNA expressed in oocytes, responded to concentrations ranging from 1 mM to as low as 0.1 nM) [nM] | lowest Compound A concentration giving a response [2] [nM] | luminescent response (mobilization of intracellular calcium) (rat GHSR type Ia) | Kd [3] [nM] | Bmax ([3]; clone 7-3 expressed transiently in COS-7 cells, saturable binding) [fmol/mg protein]
1 | CC(C)(N)C(=O)N[C@H](COCc1ccccc1)C(=O)N1CCC2(CC1)CN(S(C)(=O)=O)c1ccccc12 [Compound A] | positive bioluminescence response | 0.1 | 0.1 | luminescent responses |  | 
2 | CC(C)(N)C(=O)N[C@H](COCc1ccccc1)C(=O)N1CCC2(CC1)CN([35S](C)(=O)=O)c1ccccc12 [^35S-Compound A] |  |  |  |  | ~0.2 | ~80
